Test results: ChEMBL document CHEMBL4393680, “Design, synthesis and biological evaluation of novel thioquinazolinone-based 2-aminobenzamide derivatives as potent histone deacetylase (HDAC) inhibitors” (Eur J Med Chem, 2019)
The source made the active and inactive calls. The calls are words filed in the database; no cut-off is given here.

How the values were obtained:
A-375 [1] = assay: Antiproliferative activity against human A375 cells assessed as reduction in cell growth incubated for 72 hrs by CCK-8 assay; type: functional, cell-based; details: A-375, 72 h
SMMC-7721 [2] = assay: Induction of apoptosis in human SMMC7721 cells incubated for 48 hrs by Annexin-V-FITC/propidium iodide staining based flow cytometry; type: functional, cell-based
Histone deacetylase 2 = Histone deacetylase 2 (Homo sapiens, UniProt Q92769); assay: Inhibition of HDAC2 in human SMMC7721 cells assessed as increase in H3K9 acetylation at 1uM incubated for 48 hrs by DAPI staining based confocal fluorescence microscopy; type: cell-based
Sequence of Histone deacetylase 2 (Q92769 whole entry): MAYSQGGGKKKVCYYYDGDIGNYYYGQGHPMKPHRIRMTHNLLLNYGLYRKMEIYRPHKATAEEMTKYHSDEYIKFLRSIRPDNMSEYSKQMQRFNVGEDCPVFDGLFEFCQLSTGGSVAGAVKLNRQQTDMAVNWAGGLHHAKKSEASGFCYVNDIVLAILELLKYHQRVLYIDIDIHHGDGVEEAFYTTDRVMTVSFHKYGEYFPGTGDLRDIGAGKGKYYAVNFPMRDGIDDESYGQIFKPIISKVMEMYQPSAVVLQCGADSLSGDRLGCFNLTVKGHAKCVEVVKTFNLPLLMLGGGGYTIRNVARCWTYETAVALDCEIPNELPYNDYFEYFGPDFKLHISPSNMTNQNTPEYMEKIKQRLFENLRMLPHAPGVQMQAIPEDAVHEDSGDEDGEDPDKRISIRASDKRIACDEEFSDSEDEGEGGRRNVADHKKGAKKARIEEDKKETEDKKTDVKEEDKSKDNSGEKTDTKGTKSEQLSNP

SMMC-7721 [3] = assay: Antiproliferative activity against human SMMC7721 cells assessed as reduction in cell growth incubated for 72 hrs by CCK-8 assay; type: functional, cell-based; details: SMMC-7721, 72 h
SMMC-7721 [4] = assay: Induction of apoptosis in human SMMC7721 cells assessed as late apoptotic cells at 0.25 uM incubated for 48 hrs by Annexin-V-FITC/propidium iodide staining based flow cytometry (Rvb=1.73%); type: functional
SMMC-7721 [5] = assay: Induction of apoptosis in human SMMC7721 cells assessed as late apoptotic cells at 1 uM incubated for 48 hrs by Annexin-V-FITC/propidium iodide staining based flow cytometry (Rvb=1.73%); type: functional
SMMC-7721 [6] = assay: Cell cycle arrest in human SMMC7721 cells assessed as accumulation at G2/M phase at 4 uM incubated for 48 hrs by propidium iodide staining based flow cytometry (Rvb=16.17%); type: functional
SMMC-7721 [7] = assay: Induction of apoptosis in human SMMC7721 cells assessed as viable cells at 4 uM incubated for 48 hrs by Annexin-V-FITC/propidium iodide staining based flow cytometry (Rvb=93.5%); type: functional; details: SMMC-7721, 48 h, read-out: Activity
A549 [8] = assay: Antiproliferative activity against human A549 cells assessed as reduction in cell growth at 8 uM incubated for 72 hrs by CCK-8 assay relative to control; type: functional; details: A549, 72 h
HCT-116 [9] = assay: Antiproliferative activity against human HCT116 cells assessed as reduction in cell growth incubated for 72 hrs by CCK-8 assay; type: functional, cell-based; details: HCT-116, 72 h
SMMC-7721 [10] = assay: Cell cycle arrest in human SMMC7721 cells assessed as accumulation at G0/G1 phase at 0.25 uM incubated for 48 hrs by propidium iodide staining based flow cytometry (Rvb=77%); type: functional
SMMC-7721 [11] = assay: Induction of apoptosis in human SMMC7721 cells assessed as late apoptotic cells at 4 uM incubated for 48 hrs by Annexin-V-FITC/propidium iodide staining based flow cytometry (Rvb=1.73%); type: functional
SMMC-7721 [12] = assay: Induction of apoptosis in human SMMC7721 cells assessed as early apoptotic cells at 1 uM incubated for 48 hrs by Annexin-V-FITC/propidium iodide staining based flow cytometry (Rvb=2.88%); type: functional
SMMC-7721 [13] = assay: Induction of apoptosis in human SMMC7721 cells assessed as necrotic cells at 1 uM incubated for 48 hrs by Annexin-V-FITC/propidium iodide staining based flow cytometry (Rvb=1.88%); type: functional
SMMC-7721 [14] = assay: Cell cycle arrest in human SMMC7721 cells assessed as accumulation at G0/G1 phase at 4 uM incubated for 48 hrs by propidium iodide staining based flow cytometry (Rvb=77%); type: functional
SMMC-7721 [15] = assay: Induction of apoptosis in human SMMC7721 cells assessed as viable cells at 1 uM incubated for 48 hrs by Annexin-V-FITC/propidium iodide staining based flow cytometry (Rvb=93.5%); type: functional; details: SMMC-7721, 48 h, read-out: Activity
Histone deacetylase = assay: Inhibition of HDAC in human HeLa cell nuclear extract using fluor-de-lys-green as substrate preincubated for 10 mins followed by substrate addition and measured after 30 mins by fluorescence assay; type: cell-based
NIH3T3 = assay: Cytotoxicity against mouse NIH/3T3 cells assessed as reduction in cell viability after 48 hrs by CCK8 assay; type: cell-based; details: NIH3T3, 48 h
A549 [16] = assay: Antiproliferative activity against human A549 cells assessed as reduction in cell growth incubated for 72 hrs by CCK-8 assay; type: functional, cell-based; details: A549, 72 h
HCT-116 [17] = assay: Antiproliferative activity against human HCT116 cells assessed as reduction in cell growth at 2 uM incubated for 72 hrs by CCK-8 assay relative to control; type: functional; details: HCT-116, 72 h
SMMC-7721 [18] = assay: Cell cycle arrest in human SMMC7721 cells assessed as accumulation at S phase at 0.25 uM incubated for 48 hrs by propidium iodide staining based flow cytometry (Rvb=6.83%); type: functional
SMMC-7721 [19] = assay: Induction of apoptosis in human SMMC7721 cells assessed as necrotic cells at 0.25 uM incubated for 48 hrs by Annexin-V-FITC/propidium iodide staining based flow cytometry (Rvb=1.88%); type: functional
SMMC-7721 [20] = assay: Cell cycle arrest in human SMMC7721 cells assessed as accumulation at G0/G1 phase at 1 uM incubated for 48 hrs by propidium iodide staining based flow cytometry (Rvb=77%); type: functional
SMMC-7721 [21] = assay: Induction of apoptosis in human SMMC7721 cells assessed as necrotic cells at 4 uM incubated for 48 hrs by Annexin-V-FITC/propidium iodide staining based flow cytometry (Rvb=1.88%); type: functional
HCT-116 [22] = assay: Antiproliferative activity against human HCT116 cells assessed as reduction in cell growth at 8 uM incubated for 72 hrs by CCK-8 assay relative to control; type: functional; details: HCT-116, 72 h
SMMC-7721 [23] = assay: Induction of apoptosis in human SMMC7721 cells assessed as early apoptotic cells at 0.25 uM incubated for 48 hrs by Annexin-V-FITC/propidium iodide staining based flow cytometry (Rvb=2.88%); type: functional
A-375 [24] = assay: Antiproliferative activity against human A375 cells assessed as reduction in cell growth at 2 uM incubated for 72 hrs by CCK-8 assay relative to control; type: functional; details: A-375, 72 h
Histone deacetylase 1 = Histone deacetylase 1 (Homo sapiens, UniProt Q13547); assay: Inhibition of human recombinant His-tagged HDAC1 (482 residues) expressed in baculovirus infected insect cells using FLUOR DE LYS SIRT1 as substrate incubated for 10 mins followed by substrate addition and measured after 30 mins by fluorescence method
Sequence of Histone deacetylase 1 (Q13547 whole entry): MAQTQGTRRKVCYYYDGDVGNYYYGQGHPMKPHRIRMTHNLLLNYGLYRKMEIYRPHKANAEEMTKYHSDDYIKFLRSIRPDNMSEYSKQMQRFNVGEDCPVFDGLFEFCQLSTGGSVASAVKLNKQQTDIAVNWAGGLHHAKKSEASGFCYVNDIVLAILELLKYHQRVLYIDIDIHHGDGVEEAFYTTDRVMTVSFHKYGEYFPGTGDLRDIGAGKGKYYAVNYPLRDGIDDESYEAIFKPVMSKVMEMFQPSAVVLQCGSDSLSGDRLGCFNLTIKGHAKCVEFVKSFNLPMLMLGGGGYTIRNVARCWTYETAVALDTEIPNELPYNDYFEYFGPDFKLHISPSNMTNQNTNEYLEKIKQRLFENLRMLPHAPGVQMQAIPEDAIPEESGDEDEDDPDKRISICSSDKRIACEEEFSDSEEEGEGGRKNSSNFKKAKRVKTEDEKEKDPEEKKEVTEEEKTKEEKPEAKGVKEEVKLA

HeLa [25] = assay: Antiproliferative activity against human HeLa cells assessed as reduction in cell growth at 8 uM incubated for 72 hrs by CCK-8 assay relative to control; type: functional
SMMC-7721 [26] = assay: Induction of apoptosis in human SMMC7721 cells assessed as early apoptotic cells at 4 uM incubated for 48 hrs by Annexin-V-FITC/propidium iodide staining based flow cytometry (Rvb=2.88%); type: functional
A549 [27] = assay: Antiproliferative activity against human A549 cells assessed as reduction in cell growth at 2 uM incubated for 72 hrs by CCK-8 assay relative to control; type: functional; details: A549, 72 h
SMMC-7721 [28] = assay: Induction of apoptosis in human SMMC7721 cells assessed as viable cells at 0.25 uM incubated for 48 hrs by Annexin-V-FITC/propidium iodide staining based flow cytometry (Rvb=93.5%); type: functional; details: SMMC-7721, 48 h, read-out: Activity
HeLa [29] = assay: Antiproliferative activity against human HeLa cells assessed as reduction in cell growth at 2 uM incubated for 72 hrs by CCK-8 assay relative to control; type: functional
SMMC-7721 [30] = assay: Cell cycle arrest in human SMMC7721 cells assessed as accumulation at G2/M phase at 1 uM incubated for 48 hrs by propidium iodide staining based flow cytometry (Rvb=16.17%); type: functional
SMMC-7721 [31] = assay: Cell cycle arrest in human SMMC7721 cells assessed as accumulation at S phase incubated for 48 hrs by propidium iodide staining-based flow cytometry; type: functional

In the case of `COc1ccc2c(=O)n(C)c(SCc3ccc(C(=O)Nc4ccccc4N)cc3)nc2c1`, the IC50 (A-375 [1]) is reported as 980 nM, the Activity (SMMC-7721 [2]) is reported as “Dose-dependent effect” and the inhibition (Histone deacetylase 2) is reported as “Active”. It also gave an IC50 (SMMC-7721 [3]) of 30 nM, an Activity (SMMC-7721 [4]) of 18.9% and an Activity (SMMC-7721 [5]) of 45.4%. For the same molecule, the Activity (SMMC-7721 [6]) was 31.22%, the viability at 4 µM (SMMC-7721 [7]) was 21.7% and the inhibition at 8 µM (A549 [8]) was 82.8%. The IC50 (HCT-116 [9]) was 750 nM, the Activity (SMMC-7721 [10]) was 67.11% and the Activity (SMMC-7721 [11]) was 54.8%. For the same molecule, the Activity (SMMC-7721 [12]) was 11.6%, the Activity (SMMC-7721 [13]) was 10.8% and the Activity (SMMC-7721 [14]) was 46.09%. The viability at 1 µM (SMMC-7721 [15]) was 32.3%, the IC50 (Histone deacetylase) was 990 nM and the IC50 (NIH3T3) was 2530 nM. It also gave an IC50 (A549 [16]) of 3060 nM, an inhibition at 2 µM (HCT-116 [17]) of 73.1% and an Activity (SMMC-7721 [18]) of 22.23%. The Activity (SMMC-7721 [19]) was 5.77%, the Activity (SMMC-7721 [20]) was 58.1% and the Activity (SMMC-7721 [21]) was 10.6%. It also gave an inhibition at 8 µM (HCT-116 [22]) of 91.8%, an Activity (SMMC-7721 [23]) of 9.27% and an inhibition at 2 µM (A-375 [24]) of 52.2%. For the same molecule, the IC50 (Histone deacetylase 1) was 10 nM, the inhibition at 8 µM (HeLa [25]) was 87% and the Activity (SMMC-7721 [26]) was 13%. It also gave an inhibition at 2 µM (A549 [27]) of 38%, a viability at 0.25 µM (SMMC-7721 [28]) of 66% and an inhibition at 2 µM (HeLa [29]) of 57.5%. For the same molecule, the Activity (SMMC-7721 [30]) was 22.56%.
With `CCn1c(SCc2ccc(/C=C/C(=O)Nc3ccccc3N)cc2)nc2cc(OC)ccc2c1=O` the IC50 (A-375 [1]) was 940 nM, the Activity (SMMC-7721 [2]) was “Dose-dependent effect” and the inhibition (Histone deacetylase 2) was “Active”. It also gave an IC50 (SMMC-7721 [3]) of 60 nM, an Activity (SMMC-7721 [4]) of 9.65% and an Activity (SMMC-7721 [5]) of 28.8%. For the same molecule, the Activity (SMMC-7721 [31]) was “Dose-dependent effect”, the Activity (SMMC-7721 [6]) was 17.68% and the viability at 4 µM (SMMC-7721 [7]) was 41.3%. It also gave an inhibition at 8 µM (A549 [8]) of 78.2%, an IC50 (HCT-116 [9]) of 1430 nM and an Activity (SMMC-7721 [10]) of 61.58%. The Activity (SMMC-7721 [11]) was 38.2%, the Activity (SMMC-7721 [12]) was 16.4% and the Activity (SMMC-7721 [13]) was 8.91%. For the same molecule, the Activity (SMMC-7721 [14]) was 53.62%, the viability at 1 µM (SMMC-7721 [15]) was 45.8% and the IC50 (NIH3T3) was 4800 nM. It also gave an IC50 (A549 [16]) of 1760 nM, an inhibition at 2 µM (HCT-116 [17]) of 67.3% and an Activity (SMMC-7721 [18]) of 20.75%. The Activity (SMMC-7721 [19]) was 4.51%, the Activity (SMMC-7721 [20]) was 50.71% and the Activity (SMMC-7721 [21]) was 10%. For the same molecule, the inhibition at 8 µM (HCT-116 [22]) was 80.5%, the Activity (SMMC-7721 [23]) was 6.55% and the inhibition at 2 µM (A-375 [24]) was 55%. For the same molecule, the IC50 (Histone deacetylase 1) was 100 nM, the inhibition at 8 µM (HeLa [25]) was 70.8% and the Activity (SMMC-7721 [26]) was 10.5%. It also gave an inhibition at 2 µM (A549 [27]) of 18.6%, a viability at 0.25 µM (SMMC-7721 [28]) of 79.3% and an inhibition at 2 µM (HeLa [29]) of 24%. It also gave an Activity (SMMC-7721 [30]) of 33.16%.
